According to ChEMBL document CHEMBL3397025, “Guanine-based amphiphiles: synthesis, ion transport properties and biological activity” (Bioorg Med Chem, 2015):

How the values were obtained:
[1] = Cytotoxicity against human SH-SY5Y cells assessed as cell viability after 48 hrs by MTT assay; format: functional, cell-based
[2] = Ionophoric activity in large unilamellar vesicles containing 95:5 egg phosphatidylcholine and egg phosphatidylglycerol assessed as fluorescence emission at 25 degC after 10 mins by HPTS assay in presence of Cs+; format: ADME
[3] = Ionophoric activity in large unilamellar vesicles containing 95:5 egg phosphatidylcholine and egg phosphatidylglycerol assessed as fluorescence emission at 25 degC after 10 mins by HPTS assay in presence of Na+; format: ADME
[4] = Ionophoric activity in large unilamellar vesicles containing 95:5 egg phosphatidylcholine and egg phosphatidylglycerol assessed as fluorescence emission at 25 degC after 10 mins by HPTS assay in presence of Rb+; format: ADME
[5] = Ionophoric activity in large unilamellar vesicles containing 95:5 egg phosphatidylcholine and egg phosphatidylglycerol assessed as fluorescence emission at 25 degC after 10 mins by HPTS assay in presence of Cl-; format: ADME
[6] = Ionophoric activity in large unilamellar vesicles containing 95:5 egg phosphatidylcholine and egg phosphatidylglycerol assessed as fluorescence emission at 25 degC after 10 mins by HPTS assay in presence of I-; format: ADME
[7] = tested on: DU-145; experiment: Cytotoxicity against human DU145 cells assessed as cell viability after 48 hrs by MTT assay; format: functional, cell-based; conditions: DU-145, 48 h
[8] = Ionophoric activity in large unilamellar vesicles containing 95:5 egg phosphatidylcholine and egg phosphatidylglycerol assessed as fluorescence emission at 25 degC after 10 mins by HPTS assay in presence of Li+; format: ADME
[9] = Ionophoric activity in large unilamellar vesicles containing 95:5 egg phosphatidylcholine and egg phosphatidylglycerol assessed as fluorescence emission at 25 degC after 10 mins by HPTS assay in presence of Br-; format: ADME
[10] = tested on: MCF7; experiment: Cytotoxicity against human MCF7 cells assessed as cell viability after 48 hrs by MTT assay; format: functional, cell-based; conditions: MCF7, 48 h
[11] = Ionophoric activity in large unilamellar vesicles containing 95:5 egg phosphatidylcholine and egg phosphatidylglycerol assessed as fluorescence emission at 25 degC after 10 mins by HPTS assay in presence of F-; format: ADME
[12] = Ionophoric activity in large unilamellar vesicles containing 95:5 egg phosphatidylcholine and egg phosphatidylglycerol assessed as fluorescence emission at 25 degC after 10 mins by HPTS assay in presence of K+; format: ADME
[13] = tested on: HaCaT; experiment: Cytotoxicity against human HaCaT cells assessed as cell viability after 48 hrs by MTT assay; format: functional, cell-based

Activity [2]	Activity [3]	Activity [4]	Activity [5]	Activity [6]	Activity [8]	Activity [9]	Activity [11]	Activity [12]	Structure (SMILES)	IC50 [1]	IC50 [7]	IC50 [10]	IC50 [13]
									CCCCCCCCCCCCCC(=O)O[C@@H]1[C@H](OC(=O)CCCCCCCCCCCCC)[C@@H](COC(=O)CCC(=O)OC[C@H]2O[C@H](O[C@H]3O[C@H](CO)[C@@H](O)[C@H](O)[C@H]3O)[C@H](O)[C@@H](O)[C@@H]2O)O[C@H]1n1cnc2c(=O)[nH]c(N)nc21	17 µM			
Active	Active	Active	Active	Active	Active	Active	Active	Active	Nc1nc2c(ncn2C(=O)CCC(=O)OC[C@H]2O[C@H](O[C@H]3O[C@H](CO)[C@@H](O)[C@H](O)[C@H]3O)[C@H](O)[C@@H](O)[C@@H]2O)c(=O)[nH]1	5 µM	25 µM	1 µM	80 µM
	Not Active							Not Active	COCCOCCOCCn1cnc2c(=O)[nH]c(N)nc21	> 100 µM	> 100 µM	> 100 µM	> 100 µM
